Source: patent US8658639B2, “N-substituted-cyclic amino derivative” (Dainippon Sumitomo Pharma Co., Ltd, priority 2009, dated 2014)

Columns and labels:
[1] = target: T1, Recombinant human renin (Homo sapiens, UniProt P00797); assay: In vitro renin inhibitory activity assay; assay type: biochemical; conditions: recombinant human renin 4.2 ng/mL, substrate 4 μM, 37° C., one hour, pH 7.4
T1 sequence (P00797 67-406): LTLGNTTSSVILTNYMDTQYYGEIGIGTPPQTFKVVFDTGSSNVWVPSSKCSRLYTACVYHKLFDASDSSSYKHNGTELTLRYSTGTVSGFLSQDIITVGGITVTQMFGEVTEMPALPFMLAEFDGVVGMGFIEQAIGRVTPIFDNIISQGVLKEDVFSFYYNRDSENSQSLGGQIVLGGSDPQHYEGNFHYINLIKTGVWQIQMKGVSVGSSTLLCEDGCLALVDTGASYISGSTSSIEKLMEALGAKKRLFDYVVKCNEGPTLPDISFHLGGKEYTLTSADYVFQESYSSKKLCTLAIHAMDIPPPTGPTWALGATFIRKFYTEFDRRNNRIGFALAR
Experimental: Experiment 1: In Vitro Renin Inhibitory Activity Assay
Recombinant human renin (4.2 ng/mL) was reacted in 0.1M HEPES buffer (pH 7.4) containing 0.1M NaCl, 1 mM EDTA and 0.1 mg/mL BSA together with a substrate and a test compound at 37° C. for one hour. As the substrate, Arg-Glu(EDANS)-Ile-His-Pro-Phe-His-Leu-Val-Ile-His-Thr-Lys(DABCYL)-Arg (SEQ ID NO: 1) or DABCYL-γ-Abu-Ile-His-Pro-Phe-His-Leu-Val-Ile-His-Thr-EDANS (SEQ ID NO: 2) was added in such an amount so that the final concentration thereof became 4 μM. The elevated fluorescence intensity at the exciting wavelength 340 nm and the fluorescence wavelength 500 nm was measured by a fluorescence plate reader. The concentration of a test compound to be needed to inhibit an enzyme activity in the presence of a test compound in several concentrations by 50% was calculated as an IC50 value. The test compounds were diluted in DMSO and used in this Experiment.

[2] = system: abdominal skin of CD male rats; assay: Testing for irritation by single subcutaneous administration to rats; assay type: in vivo; parameters: key: — No inflammation; Amount of Inflammation: * < ** < *** < ****; Amount of Inflammation: * < ** < *** < ****; Amount of Inflammation: * < ** < *** < ****; Amount of Inflammation: * < ** < *** < ****; conditions: single subcutaneous administration 0.1 ml, 2% in DMSO and saline
Experimental: Experiment 2: Testing for Irritation by Single Subcutaneous Administration to Rats
A test compound was measured and dissolved in DMSO and a saline solution in a concentration of 2%.

SMILES: CCC(=O)NCCN1C(=O)[C@](C)(COC)Oc2cc(C)c(C(=O)N(C(C)C)[C@@H]3CCCN(C(=O)O[C@H](C)OC(=O)C(C)C)C3)cc21 [Example 93]
- IC50 [1]: 1900 nM
- Observation at Administration Site, One day after administration ([2]; one day after administration): —
- Observation at Administration Site, Three days after administration ([2]; three days after administration): —
